Here are results for one compound from patent publication US7615210B2, “Treatment of endometriosis” (Medical Research Council, priority 2003, dated 2009).

In the assay the test system is PK1 expression in endometrial tissue. As to the kind of experiment: PK1 expression in endometrial tissue incubated with progesterone, Taqman quantitative RT-PCR. Format: cell-based, human. Conditions: endometrial tissue (n=5), 1 μM progesterone, 24 hours, control ethanol; mean ± SEM; p<0.05. As for the experimental part:
RNA was extracted from endometrial biopsies obtained from across the menstrual cycle (n=35) using Tri Reagent (Sigma, Poole, UK) following the Manufacturer's instructions. RNA samples were quantified and were reverse transcribed using 5.5 mmol 1^−1 MgCl2, 0.5 mmol 1^−1 of each deoxynucleotide triphosphate (dNTP), 2.5 μmol 1^−1 random hexamers, ribonuclease inhibitor (0.4 U μl^−1) and 1.25 U μl^−1 Multiscribe reverse transcriptase (all from Applied Biosystems, Warrington, UK). RNA (400 ng) was added to each reverse transcription reaction and samples were incubated for 90 minutes at 25° C., 45 minutes at 48° C. and 5 minutes at 95° C. The reaction mix for the polymerase chain reaction (PCR) consisted of 1× mastermix, ribosomal 18S forward and reverse primers, Ribosomal 18S probe (50 nmol 1^−1; all from Applied Biosystems, Warrington, UK), forward and reverse primers for PK1, PK2, PKR1 and PKR2 (300 nmol 1^−1) and their probes (200 nmol 1^−1) (all from Biosource UK, Nivelles, Belgium). The reaction mix (48 μl) was aliquoted into tubes and 2 μl cDNA was added. Duplicate 24 μl samples plus positive and negative controls were placed in a PCR plate and wells were sealed with optical caps. […] Data were analysed and processed using Sequence Detector version 1.6.3 (Applied Biosystems, Warrington, UK) according to manufacturer's instructions. […]

“And” between values parts separate entries of the source, which are not always exact repeats. Identical values can stand only once.

With `CC(=O)[C@H]1CC[C@H]2[C@@H]3CCC4=CC(=O)CC[C@]4(C)[C@H]3CC[C@]12C` [progesterone], the “fold increase in PK1 expression compared with controls” value is 2.91 fold and 2.91(±0.75) fold.
